Six compounds from patent US20220145303A1, “FRAGILE X MENTAL RETARDATION PROTEIN INTERFERING OLIGONUCLEOTIDES AND METHODS OF USING SAME” (Nogra Pharma Limited, priority 2019, published 2022) can be followed below.

Data set [1] relates to FMRP. Nature of the data set: FMRP knockdown: Western blot of FMRP after transfection with FMRP antisense or sense oligonucleotide. The following applies: 48 hours, AS 0.5-100 nM, S 100 nM. The format is cell-based, human. On the procedure:
Total proteins were extracted from mouse colonic tissues, and lysed on ice in buffer containing 10 mM HEPES [pH 7.9], 10 mM KCl, 0.1 mM EthyleneDiamineTetraacetic Acid (EDTA), 0.2 mM Ethylene Glycol-bis (β-aminoethyl ether)-N,N,N′,N′-Tetraacetic Acid (EGTA) and 0.5% Nonidet P40 supplemented with 1 mM dithiothreitol (DTT), […], […], 1 mM phenylmethylsulfonyl fluoride (PMSF), 1 mM Na3VO4, and 1 mM NaF. Lysates were clarified by centrifugation and separated on sodium dodecyl sulphate (SDS)-polyacrylamide gel electrophoresis. Blots were incubated with antibodies against: FMRP (Cell Signaling, Danvers, Mass.), followed by a secondary antibody conjugated to horseradish peroxidase (Dako, Milan, Italy). After analysis, each blot was stripped and incubated with a mouse-anti-human monoclonal β-actin antibody (Sigma-Aldrich) to ascertain equivalent loading of the lanes.
Human CRC cell lines, DLD-1 and HCT-116, were obtained from the American Type Culture Collection (ATCC, Manassas, Va.) and cultured in RPMI 1640 (DLD-1) and McCoy's 5A (HCT-116) medium, respectively. All media were supplemented with 10% fetal bovine serum, 1% penicillin/streptomycin (both from Lonza, Verviers, Belgium). The normal human colon epithelial cell line (HCEC-1ct) was obtained from EVERCYTE GmbH (Vienna, Austria) and cultured in ColoUp® medium (EVERCYTE GmbH). Cells were maintained in a 37° C., 5% CO2, fully humidified incubator. Cell line lysates were prepared and analyzed by SDS-polyacrylamide gel electrophoresis/immunoblot using methods as previously described in Example 2. For immunofluorescent staining, cell lines were fixed with 3.7% formaldehyde for 10 minutes at 4° C., permeabilized with 0.1% Triton for 10 minutes at room temperature and blocked (1% bovine serum albumin, Tween 0.1%, glycine 2%) for 1 hour at room temperature. Fixed and blocked cells were incubated with anti-FMRP monoclonal antibody (1:500, Cell Signaling, Danvers, Mass.) overnight at 4° C. After washing with PBS, secondary antibody goat anti-rabbit Alexa 488 (1:2000, A11008; Invitrogen) was applied for 1 hour at room temperature. Slides were washed with PBS, mounted using Prolong Gold® anti-fade reagent with 4′,6-diamidino-2-phenylindole (P36931; Invitrogen) and analyzed by a Leica DMI4000 B microscope with Leica application suite software (V4.6.2).
Phosphorothioate single-stranded antisense oligonucleotides complementary to human FMRP [5′-[…]-3′ (SEQ ID NO: 6)] and single-stranded sense oligonucleotides [5′-[…]-3′ (SEQ ID NO: 15)] were synthesized. CRC cell lines and HCEC-1ct cells were transfected with either FMRP antisense (AS)(final concentration 0.5-100 nM) or FMRP sense oligonucleotide (S) (final concentration100 nM) for 24 and 48 hours, using Opti-MEM medium and lipofectamine 3000 reagent (Thermo Fisher Scientific, Waltham, Mass., USA) according to the manufacturer's instructions.
In general terms: In western blotting, separated proteins are transferred to a membrane and probed.

Another data set concerns CREB. In words: Western blot of CREB after CREB antisense transfection. The format is cell-based. The following applies: human CRC cell lines, 200 nM, 24 or 48 hours, vs untreated or sense control, FIGS. 7D, 7E. On the procedure: (§1) To asses if CREB regulates FMRP expression, CRC cell lines were transfected with either CREB antisense (ASc) (5′-[…]-3′) (SEQ ID NO: 16) or CREB sense (Ss) (5′-[…]-3′)(SEQ ID NO: 17)(final concentration 200 nM) for 24 or 48 hours. mRNA and total protein lysates were prepared and analyzed by RT-PCR and Western blot, respectively, as previously described in Examples 1 to 3.

In data set [2] the test system is FMRP. In words: Western blot of FMRP after CREB antisense transfection. The class given is cell-based. The following applies: human CRC cell lines, CREB antisense 200 nM, 24 or 48 hours, FIGS. 7D, 7F. On the procedure: as §1
Another data set has as its system CRC cells. Nature of the data set: Antisense-induced cell death after pan-caspase inhibitor pre-treatment (PI/AnnV flow cytometry). The format is cell-based, human. The following applies: Q-VD-OPh 1 μM pre-treatment, FIG. 4C. The protocol:
(§2) Immunotools, Friesoythe, Germany) according to the manufacturer's instructions, and incubated with […] of propidium iodide (PI) for 30 min at 4° C. Cells were also transfected with either FMRP sense oligonucleotide or FMRP AS oligonucleotide (final concentration 100 nM) for 36 hours and analyzed for activated caspase 3 and caspase 8. […] Additionally, 36 hours (FIGS. 4F and 4G) or 48 hours post-transfection (FIGS. 4D and 4E), cells were pulsed with […] bromodeoxyuridine for 60 minutes, fixed in 70% cold ethanol, and stored at −20° C. for at least 3 hours. […] Fluorescence was measured using Gallios Flow Cytometer (Beckman Coulter, Life Sciences, Pasadena, Calif., USA) and analyzed using Kaluza software (Beckman Coulter). Viable cells were considered as AV^−/PI^− cells.
A general note: Flow cytometry measures light scatter and fluorescence of single cells or particles in a stream.

For a further data set, the system named is human CRC cell lines. In words: Antisense-induced cell death with RIPK1 or MLKL inhibitor (PI/AnnV flow cytometry). The format is cell-based. The following applies: NEC1 10 μM, NSA 1 μM, 24 hours, FIGS. 6E, 6F. On the procedure:
To confirm the association of FMRP with components of the necroptosis pathway, cells were left untreated or transfected with either FMRP antisense oligonucleotide (final concentration 0.5 nM and 100 nM) or FMRP sense oligonucleotide (final concentration 100 nM); incubated with a pMLKL inhibitor (necrosulfonamide, NSA; final concentration 1 μM)(Calbiochem); or a pRIPK1 inhibitor (necrostatinl, NEC1; final concentration 10 μM)(Cayman Chemical, Ann Arbor, Mich. USA). After 24 hours cells were collected and analyzed by Western blot, or stained with FITC-Annexin V and PI for flow cytometry analysis, as previously described in Examples 1-3.

The next data set deals with caspase 3. In words: Activated caspase 3 by flow cytometry in CRC cells. The format is cell-based, human. The note with it: oligonucleotide 100 nM 36 hours, staurosporin 1 μM, FIGS. 4A, 4B. The protocol: as §2

For the compound “5′-ATGGAGGAGCTGGTGGTGGA-3′ (DNA, backbone and methylation of C not given here; further chemistry not fully specified) [sense oligonucleotide, single-stranded sense oligonucleotides, control, reference compound]”, the FMRP expression result with FMRP [1] (DLD-1 cells, FIG. 3D) is reported as “no significant inhibition”; in the data set with FMRP [1] (HCEC-1ct cells, FIG. 3I), “no significant inhibition”; in the data set on FMRP [1] (HCT-116 cells, FIG. 3G), “no significant inhibition”.
On to “5′-GCATCTCCACTCTGCTGGTT-3′ (listed as DNA, chemistry not given here) [CREB antisense oligonucleotide, CREB antisense (ASc)]”, for which the CREB protein expression result with CREB is given as “reduced expression of CREB protein”. The FMRP protein expression result in the data set on FMRP [2] is listed as “concomitant reduction in FMRP protein expression”.
For the compound `CC(C)[C@H](NC(=O)c1ccc2ccccc2n1)C(=O)N[C@@H](CC(=O)O)C(=O)COc1c(F)cccc1F` [Q-VD-OPh], the “effect of pre-treatment on FMRP antisense oligonucleotide-induced cell death” value with CRC cells is reported as “did not alter FMRP antisense oligonucleotide-induced cell death”.
On to `CN1C(=O)C(Cc2c[nH]c3ccccc23)NC1=S` (stereo not drawn) [necrostatin 1], for which the “effect on FMRP antisense oligonucleotide-induced cell death” value in the data set with human CRC cell lines is “protected from FMRP antisense oligonucleotide-induced cell death”.
Consider `COc1nccnc1NS(=O)(=O)c1ccc(NC(=O)/C=C/c2ccc([N+](=O)[O-])s2)cc1` [necrosulfonamide], for which, in the data set on human CRC cell lines, the “effect on FMRP antisense oligonucleotide-induced cell death” value is recorded as “protected from FMRP antisense oligonucleotide-induced cell death”.
In the case of `CN[C@@H]1C[C@H]2O[C@@](C)([C@@H]1OC)n1c3ccccc3c3c4c(c5c6ccccc6n2c5c31)C(=O)NC4` [staurosporin, reference compound], the “percentage of activated caspase 3-positive cells” value in the data set with caspase 3 is “significantly increased”.
